From publication PMC10035947, “Development of novel anilinoquinazoline-based carboxylic acids as non-classical carbonic anhydrase IX and XII inhibitors” (Journal of Enzyme Inhibition and Medicinal Chemistry, 2023)

How the values were obtained:
HL-60(TB) = test: NCI SRB assay; format: cell-based, human; settings: HL-60(TB)
RPMI-8226 = test: NCI SRB assay; format: cell-based, human
HOP-92 = test: NCI SRB assay; format: cell-based, human
NCI-H322M = test: NCI SRB assay; format: cell-based, human
NCI-H460 = test: NCI SRB assay; format: cell-based, human
COLO 205 = test: NCI SRB assay; format: cell-based, human
HCC-2998 = test: NCI SRB assay; format: cell-based, human
HCT-15 = test: NCI SRB assay; format: cell-based, human
HT29 = test: NCI SRB assay; format: cell-based, human
KM12 = test: NCI SRB assay; format: cell-based, human
SF-268 = test: NCI SRB assay; format: cell-based, human
SF-539 = test: NCI SRB assay; format: cell-based, human
SNB-19 = test: NCI SRB assay; format: cell-based, human
SNB-75 = test: NCI SRB assay; format: cell-based, human
U251 = test: NCI SRB assay; format: cell-based, human
MDA-MB-435 = test: NCI SRB assay; format: cell-based
SK-MEL-2 = test: NCI SRB assay; format: cell-based, human
SK-MEL-28 = test: NCI SRB assay; format: cell-based, human
UACC-257 = test: NCI SRB assay; format: cell-based, human
UACC-62 = test: NCI SRB assay; format: cell-based, human
IGROV1 = test: NCI SRB assay; format: cell-based, human
OVCAR-4 = test: NCI SRB assay; format: cell-based, human
ACHN = test: NCI SRB assay; format: cell-based, human
CAKI-1 = test: NCI SRB assay; format: cell-based, human
TK-10 = test: NCI SRB assay; format: cell-based, human; settings: TK-10, 1.00E-5 Molar
HS 578 T = test: NCI SRB assay; format: cell-based, human
T-47D = test: NCI SRB assay; format: cell-based, human
[1] = tested on: 59 human cancer cell lines representing nine tumour subpanels; test: NCI SRB assay, panel and subpanel summaries; settings: all cell lines

## COc1ccc(-c2nc(Nc3ccccc3C(=O)O)c3ccccc3n2)cc1 [6c, 2-((2–(4-Methoxyphenyl)quinazolin-4-yl)amino)benzoic acid]
HL-60(TB); 10 μM
  GI%: 67%
HL-60(TB); 1.00E-5 Molar
  Growth Percent: 32.98%
RPMI-8226; RPMI-8226, 10 μM
  GI%: 80%
RPMI-8226; RPMI-8226, 1.00E-5 Molar
  Growth Percent: 20.19%
HOP-92; HOP-92, 10 μM
  GI%: 78%
HOP-92; HOP-92, 1.00E-5 Molar
  Growth Percent: 21.82%
NCI-H322M; 10 μM
  GI%: 24%
NCI-H322M; 1.00E-5 Molar
  Growth Percent: 75.73%
NCI-H460; NCI-H460, 10 μM
  GI%: 89%
NCI-H460; NCI-H460, 1.00E-5 Molar
  Growth Percent: 11.57%
COLO 205; COLO 205, 10 μM
  GI%: – (Only GI% higher than 20% are shown)
COLO 205; COLO 205, 1.00E-5 Molar
  Growth Percent: 81.88%
HCC-2998; HCC-2998, 10 μM
  GI%: 38%
HCC-2998; HCC-2998, 1.00E-5 Molar
  Growth Percent: 62.09%
HCT-15; HCT-15, 10 μM
  GI%: 61%
HCT-15; HCT-15, 1.00E-5 Molar
  Growth Percent: 39.33%
HT29; HT29, 10 μM
  GI%: 37%
HT29; HT29, 1.00E-5 Molar
  Growth Percent: 63.13%
KM12; KM12, 10 μM
  GI%: 64%
KM12; KM12, 1.00E-5 Molar
  Growth Percent: 35.66%
SF-268; SF-268, 10 μM
  GI%: 43%
SF-268; SF-268, 1.00E-5 Molar
  Growth Percent: 56.93%
SF-539; SF-539, 10 μM
  GI%: 37%
SF-539; SF-539, 1.00E-5 Molar
  Growth Percent: 63.06%
SNB-19; SNB-19, 10 μM
  GI%: 55%
SNB-19; SNB-19, 1.00E-5 Molar
  Growth Percent: 45.59%
SNB-75; SNB-75, 10 μM
  GI%: 68%
SNB-75; SNB-75, 1.00E-5 Molar
  Growth Percent: 32.48%
U251; U251, 10 μM
  GI%: 66%
U251; U251, 1.00E-5 Molar
  Growth Percent: 34.16%
MDA-MB-435; MDA-MB-435, 10 μM
  GI%: 44%
MDA-MB-435; MDA-MB-435, 1.00E-5 Molar
  Growth Percent: 56.03%
SK-MEL-2; SK-MEL-2, 10 μM
  GI%: 57%
SK-MEL-2; SK-MEL-2, 1.00E-5 Molar
  Growth Percent: 43.49%
SK-MEL-28; SK-MEL-28, 10 μM
  GI%: 35%
SK-MEL-28; SK-MEL-28, 1.00E-5 Molar
  Growth Percent: 65.22%
UACC-257; UACC-257, 10 μM
  GI%: 28%
UACC-257; UACC-257, 1.00E-5 Molar
  Growth Percent: 72.03%
UACC-62; UACC-62, 10 μM
  GI%: 44%
UACC-62; UACC-62, 1.00E-5 Molar
  Growth Percent: 55.88%
IGROV1; IGROV1, 10 μM
  GI%: 21%
IGROV1; IGROV1, 1.00E-5 Molar
  Growth Percent: 78.77%
OVCAR-4; OVCAR-4, 10 μM
  GI%: 66%
OVCAR-4; OVCAR-4, 1.00E-5 Molar
  Growth Percent: 34.25%
ACHN; 10 μM
  GI%: 54%
ACHN; 1.00E-5 Molar
  Growth Percent: 46.21%
CAKI-1; CAKI-1, 10 μM
  GI%: 53%
CAKI-1; CAKI-1, 1.00E-5 Molar
  Growth Percent: 46.89%
TK-10
  Growth Percent: 74.99%
HS 578 T; HS 578 T, 10 μM
  GI%: 72%
HS 578 T; HS 578T, 1.00E-5 Molar
  Growth Percent: 28.05%
T-47D; 10 μM
  GI%: 71%
T-47D; 1.00E-5 Molar
  Growth Percent: 29.31%
[1]; 10 μM
  Mean GI %: 52%
[1]; 1.00E-5 Molar
  Mean Growth Percent: 48.18%
